Measurements published in US20230390267A1, “TREATMENT REGIMENS FOR EARLY IDIOPATHIC PARKINSON'S DISEASE” (BIAL - PORTELA & CA., S.A., priority 2020, published 2023).

Legend:
[1] = test system: PD patients with motor fluctuations; conditions: cited from earlier work
COMT activity in brain = conditions: cited from earlier work
[2] = test system: patients who switched from entacapone to opicapone or had lack of efficacy or adverse events with entacapone; conditions: patients who continued with opicapone beyond 6 months; cited from earlier work
[3] = oral opicapone with levodopa; evident 24 hours after drug administration; cited from earlier work
S-COMT = conditions: peripheral tissues; cited from earlier work
[4] = test system: patients with early idiopathic Parkinson's disease treated with levodopa/DDCI, with no signs of motor complications; test: EPSILON Phase III study, safety (treatment emergent adverse events)
Excerpt: The term “treatment-emergent adverse event” is defined as any event not present before exposure to the study drug or any event already present that worsens in either intensity or frequency after first intake of study drug until 2 weeks after last intake of the study drug.
The factors evaluated include: • Treatment-emergent adverse events (TEAEs) including serious adverse events (SAEs) • Laboratory safety tests (biochemistry, hematology, coagulation and urinalysis) • Physical and neurological examinations • Vital signs • 12-lead ECG readings • Columbia-Suicide Severity Rating Scale (C-SSRS) • Modified Minnesota Impulsive Disorders Interview (mMIDI)

For Cc1c(Cl)c(C)[n+]([O-])c(Cl)c1-c1noc(-c2cc(O)c(O)c([N+](=O)[O-])c2)n1 [opicapone, 2,5-dichloro-3-[5-(3,4-dihydroxy-5-nitrophenyl)-1,2,4-oxadiazol-3-yl]-4,6-dimethylpyridine 1-oxide], the “mean improvement in NMSS total score” value ([1]; 1-year open-label endpoint) is given as −4.2, the “change in NMSS sleep/fatigue score” value ([1]; opicapone 50 mg dose, vs −0.5 with placebo) is given as −1.2 points and the “effect on COMT activity in brain” value (COMT activity in brain) is given as “does not appear to have any effect”. For the same compound, the “mean reduction in OFF time measured by interview” value [2] was −2 hours per day, the brain levodopa levels [3] was “sustained increase in brain levodopa levels” and the “binding affinity to S-COMT” value (S-COMT) was “sub-picomolar”. For the same compound, the “Any Serious TEAE; %” value ([4]; double blind phase, N = 177) was “(5.1) %”, the “Any Serious TEAE; n” value ([4]; double blind phase, N = 177) was 9 and the “Any TEAE by Maximum Severity: Mild; %” value ([4]; double blind phase, N = 177) was “(29.9) %”. The “Any TEAE by Maximum Severity: Mild; n” value ([4]; double blind phase, N = 177) was 53, the “Any TEAE by Maximum Severity: Moderate; %” value ([4]; double blind phase, N = 177) was “(14.1) %” and the “Any TEAE by Maximum Severity: Moderate; n” value ([4]; double blind phase, N = 177) was 25. For the same compound, the “Any TEAE by Maximum Severity: Severe; %” value ([4]; double blind phase, N = 177) was “(3.4) %”, the “Any TEAE by Maximum Severity: Severe; n” value ([4]; double blind phase, N = 177) was 6 and the “Any TEAE by Worst Relationship: Definitely Related; %” value ([4]; double blind phase, N = 177) was “(1.1) %”. For the same compound, the “Any TEAE by Worst Relationship: Definitely Related; n” value ([4]; double blind phase, N = 177) was 2, the “Any TEAE by Worst Relationship: Not Related (first line, total incl. Unlikely Related); %” value ([4]; double blind phase, N = 177) was “(37.3) %” and the “Any TEAE by Worst Relationship: Not Related (first line, total incl. Unlikely Related); n” value ([4]; double blind phase, N = 177) was 66. For the same compound, the “Any TEAE by Worst Relationship: Not Related (second line, sub-category); %” value ([4]; double blind phase, N = 177) was “(36.2) %”, the “Any TEAE by Worst Relationship: Not Related (second line, sub-category); n” value ([4]; double blind phase, N = 177) was 64 and the “Any TEAE by Worst Relationship: Possibly Related; %” value ([4]; double blind phase, N = 177) was “(5.6) %”. For the same compound, the “Any TEAE by Worst Relationship: Possibly Related; n” value ([4]; double blind phase, N = 177) was 10, the “Any TEAE by Worst Relationship: Probably Related; %” value ([4]; double blind phase, N = 177) was “(3.4) %” and the “Any TEAE by Worst Relationship: Probably Related; n” value ([4]; double blind phase, N = 177) was 6. For the same compound, the “Any TEAE by Worst Relationship: Related; %” value ([4]; double blind phase, N = 177) was “(10.2) %”, the “Any TEAE by Worst Relationship: Related; n” value ([4]; double blind phase, N = 177) was 18 and the “Any TEAE by Worst Relationship: Unlikely Related; %” value ([4]; double blind phase, N = 177) was “(1.1) %”. For the same compound, the “Any TEAE by Worst Relationship: Unlikely Related; n” value ([4]; double blind phase, N = 177) was 2, the “Any TEAE leading to Death; %” value ([4]; double blind phase, N = 177) was “(0.6) %” and the “Any TEAE leading to Death; n” value ([4]; double blind phase, N = 177) was 1. For the same compound, the “Any TEAE leading to IMP interruption; %” value ([4]; double blind phase, N = 177) was “(0.6) %”, the “Any TEAE leading to IMP interruption; n” value ([4]; double blind phase, N = 177) was 1 and the “Any TEAE leading to Withdrawal; %” value ([4]; double blind phase, N = 177) was “(1.1) %”. The “Any TEAE leading to Withdrawal; n” value ([4]; double blind phase, N = 177) was 2, the “Any TEAE; %” value ([4]; double blind phase, N = 177) was “(47.5) %” and the “Any TEAE; n” value ([4]; double blind phase, N = 177) was 84. For the same compound, the “TEAE Arthralgia; %” value ([4]; double blind phase, N = 177) was “(2.3) %”, the “TEAE Arthralgia; n” value ([4]; double blind phase, N = 177) was 4 and the “TEAE Back pain; %” value ([4]; double blind phase, N = 177) was “(4.5) %”. For the same compound, the “TEAE Back pain; n” value ([4]; double blind phase, N = 177) was 8, the “TEAE Dizziness; %” value ([4]; double blind phase, N = 177) was “(1.1) %” and the “TEAE Dizziness; n” value ([4]; double blind phase, N = 177) was 2. For the same compound, the “TEAE Dyskinesia; %” value ([4]; double blind phase, N = 177) was “(1.7) %”, the “TEAE Dyskinesia; n” value ([4]; double blind phase, N = 177) was 3 and the “TEAE Fall; %” value ([4]; double blind phase, N = 177) was “(2.3) %”. The “TEAE Fall; n” value ([4]; double blind phase, N = 177) was 4, the “TEAE Fatigue; %” value ([4]; double blind phase, N = 177) was “(2.8) %” and the “TEAE Fatigue; n” value ([4]; double blind phase, N = 177) was 5. The “TEAE Gastrointestinal disorders; %” value ([4]; double blind phase, N = 177) was “(6.8) %”, the “TEAE Gastrointestinal disorders; n” value ([4]; double blind phase, N = 177) was 12 and the “TEAE General disorders; %” value ([4]; double blind phase, N = 177) was “(7.9) %”. The “TEAE General disorders; n” value ([4]; double blind phase, N = 177) was 14, the “TEAE Headache; %” value ([4]; double blind phase, N = 177) was “(0.6) %” and the “TEAE Headache; n” value ([4]; double blind phase, N = 177) was 1. For the same compound, the “TEAE Hypertension; %” value ([4]; double blind phase, N = 177) was “(2.8) %”, the “TEAE Hypertension; n” value ([4]; double blind phase, N = 177) was 5 and the “TEAE Infections and Infestations; %” value ([4]; double blind phase, N = 177) was “(15.8) %”. For the same compound, the “TEAE Infections and Infestations; n” value ([4]; double blind phase, N = 177) was 28, the “TEAE Injury, poisoning and procedural complications; %” value ([4]; double blind phase, N = 177) was “(3.4) %” and the “TEAE Injury, poisoning and procedural complications; n” value ([4]; double blind phase, N = 177) was 6. For the same compound, the “TEAE Insomnia; %” value ([4]; double blind phase, N = 177) was “(2.3) %”, the “TEAE Insomnia; n” value ([4]; double blind phase, N = 177) was 4 and the “TEAE Musculoskeletal and connective tissue disorders; %” value ([4]; double blind phase, N = 177) was “(10.2) %”. For the same compound, the “TEAE Musculoskeletal and connective tissue disorders; n” value ([4]; double blind phase, N = 177) was 18, the “TEAE Nausea; %” value ([4]; double blind phase, N = 177) was “(2.3) %” and the “TEAE Nausea; n” value ([4]; double blind phase, N = 177) was 4. The “TEAE Nervous System Disorders; %” value ([4]; double blind phase, N = 177) was “(13.6) %”, the “TEAE Nervous System Disorders; n” value ([4]; double blind phase, N = 177) was 24 and the “TEAE Oedema peripheral; %” value ([4]; double blind phase, N = 177) was “(2.3) %”. The “TEAE Oedema peripheral; n” value ([4]; double blind phase, N = 177) was 4, the “TEAE On and off phenomenon; %” value ([4]; double blind phase, N = 177) was “(4.5) %” and the “TEAE On and off phenomenon; n” value ([4]; double blind phase, N = 177) was 8. For the same compound, the “TEAE Psychiatric disorders; %” value ([4]; double blind phase, N = 177) was “(7.9) %”, the “TEAE Psychiatric disorders; n” value ([4]; double blind phase, N = 177) was 14 and the “TEAE Tremor; %” value ([4]; double blind phase, N = 177) was “(1.1) %”. The “TEAE Tremor; n” value ([4]; double blind phase, N = 177) was 2, the “TEAE Upper respiratory tract infection; %” value ([4]; double blind phase, N = 177) was “(0.6) %” and the “TEAE Upper respiratory tract infection; n” value ([4]; double blind phase, N = 177) was 1. For the same compound, the “TEAE Urinary tract infection; %” value ([4]; double blind phase, N = 177) was “(2.3) %”, the “TEAE Urinary tract infection; n” value ([4]; double blind phase, N = 177) was 4 and the “TEAE Vascular disorders; %” value ([4]; double blind phase, N = 177) was “(5.6) %”. The “TEAE Vascular disorders; n” value ([4]; double blind phase, N = 177) was 10, the “TEAE Vomiting; %” value ([4]; double blind phase, N = 177) was “(1.7) %” and the “TEAE Vomiting; n” value ([4]; double blind phase, N = 177) was 3. For the same compound, the “increase in treatment emergent adverse events including nervous system disorders such as dyskinesia” value ([4]; opicapone-treated patients vs placebo) was “no increase” and the tolerability ([4]; patients without clinically diagnosed motor complications) was “well tolerated”.
